Measurements from the supplement of paper PMC5908809.

Key:
[1] = system: normal NK cells expanded with K562-aAPC; assay: drug sensitivity score (DSS) (DSS units); higher = more sensitive; extreme values may be limits of the assay; settings: 72 h; IL-2 2.5 ng/mL
Method: (§1)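 Drug sensitivity and resistance testing on K562-aAPC-expanded normal NK cells: 5 concentrations (10-fold steps over a 10,000-fold range), 72 h at 37 °C, viability by CellTiter-Glo normalised to DMSO and benzethonium chloride controls; DSS from the fitted curve.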

[2] = system: normal primary NK cells, pool 3 (3 donors) (IL-2 2.5 ng/mL); assay: as above; settings: 72 h
KAI3 (IL-2 2.5 ng/mL) [3] = assay: as above; settings: 72 h
[4] = system: normal primary NK cells, pool 1 (3 donors) (IL-2 2.5 ng/mL); assay: as above; settings: 72 h
SNK-6 (IL-2 2.5 ng/mL) [5] = assay: as above; settings: 72 h
KHYG-1 (IL-2 2.5 ng/mL) [6] = assay: as above; settings: 72 h
[7] = system: normal primary NK cells, pool 2 (3 donors) (IL-2 2.5 ng/mL); assay: as above; settings: 72 h
NK-92 (IL-2 2.5 ng/mL) [8] = assay: as above; settings: 72 h
YT (IL-2 2.5 ng/mL) [9] = assay: as above; settings: 72 h
DERL-7 (IL-2 2.5 ng/mL) [10] = assay: as above; settings: 72 h
[11] = system: normal primary NK cells, pool 1 (3 donors), resting (IL-2 0 ng/mL); assay: as above; settings: 72 h
NKL (IL-2 2.5 ng/mL) [12] = assay: as above; settings: 72 h
NK-YS (IL-2 2.5 ng/mL) [13] = assay: as above; settings: 72 h
IMC-1 (IL-2 20 ng/mL) [14] = assay: as above; settings: 72 h
[15] = system: normal NK cells expanded with K562-aAPC; assay: percent inhibition of viability; higher = more inhibition; settings: 72 h, IL-2 2.5 ng/mL
Method: as §1

[16] = system: normal primary NK cells, pool 3 (3 donors) (IL-2 2.5 ng/mL); assay: as above; settings: 72 h
KAI3 (IL-2 2.5 ng/mL) [17] = assay: as above; settings: 72 h
[18] = system: normal primary NK cells, pool 1 (3 donors) (IL-2 2.5 ng/mL); assay: as above; settings: 72 h
SNK-6 (IL-2 2.5 ng/mL) [19] = assay: as above; settings: 72 h
KHYG-1 (IL-2 2.5 ng/mL) [20] = assay: as above; settings: 72 h
[21] = system: normal primary NK cells, pool 2 (3 donors) (IL-2 2.5 ng/mL); assay: as above; settings: 72 h
NK-92 (IL-2 2.5 ng/mL) [22] = assay: as above; settings: 72 h
YT (IL-2 2.5 ng/mL) [23] = assay: as above; settings: 72 h
DERL-7 (IL-2 2.5 ng/mL) [24] = assay: as above; settings: 72 h
[25] = system: normal primary NK cells, pool 1 (3 donors), resting (IL-2 0 ng/mL); assay: as above; settings: 72 h
NKL (IL-2 2.5 ng/mL) [26] = assay: as above; settings: 72 h
NK-YS (IL-2 2.5 ng/mL) [27] = assay: as above; settings: 72 h
IMC-1 (IL-2 20 ng/mL) [28] = assay: as above; settings: 72 h

CN(c1ncccc1CNc1nc(Nc2ccc3c(c2)CC(=O)N3)ncc1C(F)(F)F)S(C)(=O)=O (max concentration tested 10000 nM)
Settings	drug sensitivity score
DERL-7 (IL-2 2.5 ng/mL) [10]	8
IMC-1 (IL-2 20 ng/mL) [14]	5.8
KAI3 (IL-2 2.5 ng/mL) [3]	7.77
KHYG-1 (IL-2 2.5 ng/mL) [6]	10.8
NK-92 (IL-2 2.5 ng/mL) [8]	5.49
NK-YS (IL-2 2.5 ng/mL) [13]	9.57
NKL (IL-2 2.5 ng/mL) [12]	8.95
SNK-6 (IL-2 2.5 ng/mL) [5]	3.56
YT (IL-2 2.5 ng/mL) [9]	9.01
[1]	6.5
[2]	4.64
[4]	7.02
[7]	4.9
[11]	3.17

percent inhibition of viability [%]
Settings	1 nM	10 nM	100 nM	1000 nM	10000 nM
DERL-7 (IL-2 2.5 ng/mL) [24]	-3.04	-1.94	-4.92	14.9	99.9
IMC-1 (IL-2 20 ng/mL) [28]	-1.02	-1.57	1.51	2.71	97.8
KAI3 (IL-2 2.5 ng/mL) [17]	-4.38	-3.17	-1.99	15.1	94.9
KHYG-1 (IL-2 2.5 ng/mL) [20]	1.46	-1.82	-1.38	42.5	95.7
NK-92 (IL-2 2.5 ng/mL) [22]	-15.3	-22	-13	1.77	94.6
NK-YS (IL-2 2.5 ng/mL) [27]	1.14	-3.29	-8.54	31.5	92.8
NKL (IL-2 2.5 ng/mL) [26]	-0.23	-12.4	-5.82	24.1	95
SNK-6 (IL-2 2.5 ng/mL) [19]	8.22	-2.6	-15.8	2.42	59.8
YT (IL-2 2.5 ng/mL) [23]	2.65	-2.39	-3.31	24.6	95.2
[15]	-0.87	-5.24	-0.38	6.43	99.8
[16]	-12.7	-6.19	-9.86	-12.6	97.7
[18]	-2.69	-13.7	-10.8	10	97.2
[21]	-12.4	-9.66	-11.1	-4.87	94.8
[25]	-20.5	-23.2	-40	-70.9	88.9

Cc1[nH]c2ccccc2c1CCNCc1ccc(/C=C/C(=O)NO)cc1 [Panobinostat] (max concentration tested 1000 nM)
Settings	drug sensitivity score
DERL-7 (IL-2 2.5 ng/mL) [10]	23
IMC-1 (IL-2 20 ng/mL) [14]	18.3
KAI3 (IL-2 2.5 ng/mL) [3]	26
KHYG-1 (IL-2 2.5 ng/mL) [6]	21.6
NK-92 (IL-2 2.5 ng/mL) [8]	22.5
NK-YS (IL-2 2.5 ng/mL) [13]	21
NKL (IL-2 2.5 ng/mL) [12]	25.2
SNK-6 (IL-2 2.5 ng/mL) [5]	22.1
YT (IL-2 2.5 ng/mL) [9]	20.1
[1]	22.6
[2]	22.3
[4]	22.3
[7]	24.6
[11]	24.6

percent inhibition of viability [%]
Settings	0.1 nM	1 nM	10 nM	100 nM	1000 nM
DERL-7 (IL-2 2.5 ng/mL) [24]	-11.8	-4.71	36.5	100	100
IMC-1 (IL-2 20 ng/mL) [28]	-2.07	-6.63	2.44	100	100
KAI3 (IL-2 2.5 ng/mL) [17]	4.1	14.2	61.8	101	101
KHYG-1 (IL-2 2.5 ng/mL) [20]	-7.12	-8.38	22.6	101	101
NK-92 (IL-2 2.5 ng/mL) [22]	-5.27	-2.71	34	98.1	101
NK-YS (IL-2 2.5 ng/mL) [27]	-8.83	-9.94	19.8	97.1	98.8
NKL (IL-2 2.5 ng/mL) [26]	-1.46	1.8	61.1	101	100
SNK-6 (IL-2 2.5 ng/mL) [19]	-14.8	4.53	31.4	98.9	99.6
YT (IL-2 2.5 ng/mL) [23]	0.21	-1.12	12.8	101	98.4
[15]	0.2	2.99	33.4	99.8	99.8
[16]	-7.01	-2.67	31.6	97.8	98.5
[18]	0.27	-4.7	33.9	97	97.5
[21]	-7.26	-4.93	64.8	94.5	94.9
[25]	-10.7	2.83	67	89.2	90.8
